The record followed here is article PMC7177849, “Gut Microbial Catabolites of Tryptophan Are Ligands and Agonists of the Aryl Hydrocarbon Receptor: A Detailed Characterization” (International Journal of Molecular Sciences, 2020).

Like-named read-outs stand apart in the source and are kept apart here.

Data set [1] relates to CYP1A1 mRNA. The data set can be described thus: Summary of CYP1A1 gene expression in human hepatic and intestinal cells. The note with it: Table 1 summary class; CYP1A1. The class given is cell-based. As for the experimental part:
(§1) Figure 4 Effects of MICT on the induction of CYP1A1 mRNA in human hepatic and intestinal cells. Cultured cells were incubated for 24 h with the vehicle (DMSO; 0.1% v/v) and tested MICT in the presence or absence of TCDD (10 nM). RT-PCR determined the level of CYP1A1 mRNA, and the data were normalized per GAPDH mRNA level. […] (A,B) Experiments in three consecutive passages of human colon adenocarcinoma cell line LS180 in the absence (A) and the presence (B) of 10 nM TCDD. The bar graphs show the percentage of maximal induction attained by TCDD and are expressed as the mean ± SD. (C) Experiments in three consecutive passages of wild-type (AhR^+/^+) and AhR-knockout (AhR^−/^−) HT-29 cells. […] (D) Primary human hepatocytes from three different donors (LH79, Hep2201020, and Hep2201021).
(§2) Total RNA was isolated using TRI Reagent® (Sigma Aldrich, Prague, Czech Republic). cDNA was synthesized using M-MuLV reverse transcriptase (New England Biolabs, Ipswich, MA, USA). The reverse transcription was performed at 42 °C for 60 min using Random Primers 6 (New England Biolabs, Ipswich, MA, USA) and diluted in a 1:4 ratio by PCR-grade water. The quantitative reverse transcriptase-polymerase chain reaction (qRT-PCR) was performed on the Lightcycler 480 II using the LightCycler ® 480 Probes Master (Roche Diagnostic Corporation, Prague, Czech Republic). The levels of CYP1A1 and GAPDH mRNAs were determined using the Universal Probe Library probes (UPL; Roche Diagnostic Corporation, Prague, Czech Republic) in combination with specific primers, using a protocol described elsewhere. All measurements were performed in triplicates, and the gene expression was normalized to glyceraldehyde-3-phosphate dehydrogenase (GAPDH) as a house-keeping gene. The data were processed using the delta-delta Ct method and expressed as a fold induction over the negative control (DMSO) or as a percentage of the positive control (maximal induction by TCDD).

Data set [2] deals with T1, AhR (Homo sapiens, UniProt P35869).
T1 sequence (P35869 11-848): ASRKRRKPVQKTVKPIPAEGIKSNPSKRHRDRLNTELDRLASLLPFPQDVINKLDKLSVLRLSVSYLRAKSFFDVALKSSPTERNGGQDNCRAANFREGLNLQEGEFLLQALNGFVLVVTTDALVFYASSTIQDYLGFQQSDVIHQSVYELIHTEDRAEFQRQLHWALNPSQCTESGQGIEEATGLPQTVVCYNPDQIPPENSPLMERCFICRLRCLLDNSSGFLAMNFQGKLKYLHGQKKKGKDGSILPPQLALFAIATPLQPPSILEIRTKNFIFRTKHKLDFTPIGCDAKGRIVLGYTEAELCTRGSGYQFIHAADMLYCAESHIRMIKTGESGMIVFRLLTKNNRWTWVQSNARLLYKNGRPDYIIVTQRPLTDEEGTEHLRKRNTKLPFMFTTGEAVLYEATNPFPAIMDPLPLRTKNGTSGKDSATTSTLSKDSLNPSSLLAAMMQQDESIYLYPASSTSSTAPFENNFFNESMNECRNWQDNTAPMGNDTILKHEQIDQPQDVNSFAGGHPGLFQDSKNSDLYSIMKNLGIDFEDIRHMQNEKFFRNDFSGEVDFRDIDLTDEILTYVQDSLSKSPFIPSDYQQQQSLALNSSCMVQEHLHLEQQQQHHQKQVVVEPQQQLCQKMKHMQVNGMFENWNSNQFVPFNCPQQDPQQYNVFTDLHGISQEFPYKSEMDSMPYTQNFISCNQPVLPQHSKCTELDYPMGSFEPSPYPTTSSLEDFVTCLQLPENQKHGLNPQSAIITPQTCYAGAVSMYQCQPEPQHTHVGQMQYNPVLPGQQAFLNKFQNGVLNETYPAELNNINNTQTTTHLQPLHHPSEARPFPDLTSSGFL
In words: Reporter gene assay in AZ-AHR cells, antagonist analyses against TCDD, BaP, FICZ. The note with it: for effect on AhR activation by BaP / effect on AhR activation by TCDD / antagonistic effect against full agonists / effect on AhR activation by FICZ: AZ-AHR cells, 24 h; for effect on AhR activation by BaP: BaP 15.8 µM; for effect on AhR activation by TCDD: TCDD 13.5 nM; for antagonistic effect against full agonists: TCDD, BaP and FICZ at EC80; for effect on AhR activation by FICZ: FICZ 22.6 µM. As for the experimental part:
In the first series of experiments, we evaluated the agonistic and antagonistic effects of MICT on the AhR activation. […] The antagonistic effects of MICT were evaluated against typical full agonists of the AhR, comprising TCDD, BaP, and FICZ, which were applied at fixed concentrations corresponding to their EC80.
AZ-AHR cells were incubated for 24 h with vehicle (DMSO; 0.1% v/v) and increasing concentrations of MICT, in the absence (agonist analyses) or the presence (antagonist analyses) of TCDD (13.5 nM), BaP (15.8 µM) and FICZ (22.6 µM). Following the treatments, we lysed cells, and luciferase activity was measured. Experiments were performed at least in four consecutive cell passages. Incubations were performed in quadruplicates (technical replicates). In agonist analyses, the data from a representative experiment, expressed as a fold induction of luciferase activity over control cells, are shown. In antagonist analyses, the data are a percentage of maximal induction, and they are the mean ± SD.
AZ-AHR cells were incubated for 24 h with vehicle (DMSO; 0.1% v/v) and increasing concentrations of tested MICT in the presence or absence of TCDD (13.5 nM), FICZ (22.6 µM), or BaP (15.8 µM). Then, cells were lysed, and luciferase activity was measured using the Tecan Infinite M200 plate luminometer (Schoeller Instruments, Czech Republic). The experiments were performed in at least four consecutive cell passages, and the treatments were in quadruplicates (technical replicates). The values of half-maximal effective concentration (EC50) for each MICT, and half-maximal inhibitory concentration (IC50—where appropriate) were calculated.

The subject of data set [3] is CYP1A1 mRNA. The data set can be described thus: CYP1A1 mRNA (qRT-PCR) in primary human hepatocytes. The data set is classed as cell-based. The note with it: three donors, 24 h. As for the experimental part:
as §1
Primary human hepatocyte cultures were from two sources: (i) long-term human hepatocytes in monolayer batch Hep2201020 (person) and Hep2201021 (person) were purchased from Biopredic International (Rennes, France); (ii) primary human hepatocytes from multiorgan donor LH79 were prepared at Palacky University Olomouc. Liver tissue was obtained from Faculty Hospital Olomouc, and the tissue acquisition protocol followed the requirements issued by the “Ethical Committee of the Faculty Hospital Olomouc, Czech Republic” and Transplantation law #285/2002 Coll.
as §2

Consider `Cc1c[nH]c2ccccc12` [3MI, skatole], for which the “Gene Expression” value in data set [1] is recorded as “strong inducer”. Moreover, in data set [2], the “effect on AhR activation by BaP” value was “dose-dependently inhibited”, the “effect on AhR activation by TCDD” value is recorded as “dose-dependently inhibited” and the “antagonistic effect against full agonists” value (shortened to “antagonistic effect”) was “ligand-selective antagonism”. In addition, in data set [2] (Table 1 summary class), the “Antagonism (IC50)” value is listed as “ligand selective”. In data set [3], the “induction of CYP1A1 mRNA” value is reported as “induced”.

On to `O=Cc1c[nH]c2ccccc12` [IA, indole-3-aldehyde], for which the “Gene Expression” value in data set [1] was “inactive”. In data set [2], the IC50 lay within 100 to 200 µM and the “antagonistic effect” value is given as “dose-dependent antagonistic effect”. Besides, the “Antagonism (IC50)” value in data set [2] (Table 1 summary class) was “yes–all ligands”.

With `O=C(O)/C=C/c1c[nH]c2ccccc12` [IAC, indole-3-acrylate], the “Gene Expression” value in data set [1] is recorded as “strong inducer”. In addition, in data set [2], the “antagonistic effect” value is on record as “no antagonistic effects”. Besides, in data set [2] (Table 1 summary class), the “Antagonism (IC50)” value was “none”. Besides, the “induction of CYP1A1 mRNA” value in data set [3] is on record as “induced”.

As for `NC(=O)Cc1c[nH]c2ccccc12` [IAD, indole-3-acetamide], the “Gene Expression” value in data set [1] is on record as “strong inducer”. For the same molecule, in data set [2], the “effect on AhR activation by BaP” value is “potentiated”, the “effect on AhR activation by FICZ” value is given as “potentiated” and the “effect on AhR activation by TCDD” value is listed as “antagonized”. The “induction of CYP1A1 mRNA” value in data set [3] was “induced”.

For `OCCc1c[nH]c2ccccc12` [IET, indole-3-ethanol], the “Gene Expression” value in data set [1] is “inactive”. The “antagonistic effect” value in data set [2] was “no antagonistic effects”.

As to `O=C(O)C(O)Cc1c[nH]c2ccccc12` (centres unmarked) [ILA, indole-3-lactate], the “Gene Expression” value in data set [1] is “inactive”. In addition, in data set [2], the “Antagonism (IC50)” value is given as “none” and the “antagonistic effect” value is on record as “no antagonistic effects”.

For `c1ccc2[nH]ccc2c1` [IND, indole], the “Gene Expression” value in data set [1] is reported as “strong inducer”. In addition, in data set [2], the “antagonistic effect” value is listed as “dose-dependent antagonistic effect”. For the same molecule, the “Antagonism (IC50)” value in data set [2] (Table 1 summary class) is listed as “yes–all ligands”. For the same molecule, the “induction of CYP1A1 mRNA” value in data set [3] is given as “induced”.

On to `O=C(O)C(=O)Cc1c[nH]c2ccccc12` [IPY, indole-3-pyruvate], for which the “Gene Expression” value in data set [1] is on record as “strong inducer”. In data set [2], the “effect on AhR activation by BaP” value is “potentiated”, the “effect on AhR activation by FICZ” value is given as “potentiated” and the “effect on AhR activation by TCDD” value is “antagonized”. For the same molecule, the “Antagonism (IC50)” value in data set [2] (Table 1 summary class) is “ligand selective”. Moreover, the “induction of CYP1A1 mRNA” value in data set [3] was “induced”.

In the case of `NCCc1c[nH]c2ccccc12` [TA, tryptamine], in data set [1], the “Gene Expression” value is “strong inducer”. The “antagonistic effect” value in data set [2] is “dose-dependent antagonistic effect”. Besides, in data set [2] (Table 1 summary class), the “Antagonism (IC50)” value was “yes–all ligands”. Moreover, in data set [3], the “induction of CYP1A1 mRNA” value is “lack of induction”.
